Experimental findings from ChEMBL document CHEMBL1201862, “PubChem BioAssay data set” (2004) are described below.

Some test systems named below: EKVX; ACHN; M14; UO-31; SK-MEL-2; MCF7; SF-295; MDA-N; DU-145; CAKI-1; A498; HT-29; A549; PC-3; U-251; OVCAR-4; NCI-H226; HCT-116; T47D; NCI-H23.
Common to all, as to experiment: DTP human tumour cell line panel, 48 h

Broadly, the GI50 is the concentration that inhibits growth by half.

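Following 48 hours of exposure in 96-well plates, responses at five concentrations were used to interpolate endpoints linearly. Abbreviation: GI50, concentration required for 50% inhibition of growth.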 The source made the active and inactive calls. Cut-off read from the data, not from the text of the source: active = GI50 up to about 1.1 µM and inactive = higher. Some results are limits rather than exact numbers.

For the molecule `CO/N=C\c1cc(O)c(O)c(/C=N/OC)c1`, the GI50 is 47.4 µM (inactive) with EKVX; 29.6 µM (inactive) with ACHN; 33.3 µM (inactive) in the assay with M14; 11.3 µM (inactive) in the assay on UO-31; > 100 µM (inactive) in the assay on SK-MEL-2; 29.3 µM (inactive) with MCF7. Further, the GI50 in the assay with SF-295 was 48 µM (inactive); with MDA-N, 64.4 µM (inactive); in the assay on DU-145, 39.5 µM (inactive); in the assay with CAKI-1, 23.3 µM (inactive); in the assay on A498, 49.1 µM (inactive); in the assay on HT-29, 40.5 µM (inactive). Further, the GI50 was 26 µM (inactive) with A549; 33.7 µM (inactive) in the assay with PC-3; 34.1 µM (inactive) with U-251; 24.9 µM (inactive) in the assay on OVCAR-4; 30.3 µM (inactive) in the assay with NCI-H226; 23.8 µM (inactive) in the assay on HCT-116. Further, the GI50 in the assay on T47D is 26.1 µM (inactive); in the assay on NCI-H23, 26.9 µM (inactive).
On to `CCN(CC)CCNc1ccc2nnn3c4ccc(OC(C)=O)cc4c(=O)c1c23`, for which the GI50 in the assay with EKVX is 5.56 µM (inactive); with ACHN it was 1.02 µM (active); with M14, 6.64 µM (inactive); with UO-31, 1.63 µM (inactive); in the assay with SK-MEL-2, 14.8 µM (inactive); in the assay on MCF7, 2.16 µM (inactive). Moreover, the GI50 in the assay with SF-295 is 4.51 µM (inactive); in the assay with MDA-N it was 4.61 µM (inactive); with DU-145, 2.39 µM (inactive); in the assay with CAKI-1 it was 0.378 µM (active); in the assay on A498, 6.76 µM (inactive); in the assay on HT-29, 1.47 µM (inactive). Also, the GI50 in the assay on A549 is 3.14 µM (inactive); in the assay on PC-3, 3.62 µM (inactive); in the assay with U-251, 2.22 µM (inactive); with OVCAR-4 it was 2.36 µM (inactive); with NCI-H226, 0.615 µM (active); in the assay with HCT-116 it was 3.46 µM (inactive). Also, the GI50 was 15.8 µM (inactive) in the assay on T47D and 3.77 µM (inactive) in the assay with NCI-H23.
For `CC[C@@]1(O)C(=O)OCc2c1cc1n(c2=O)Cc2c-1nc1ccccc1c2/C=N\NC(=O)C(N)CO` (stereo not given in full), the GI50 in the assay on EKVX is 18.8 µM (inactive); with ACHN, 0.191 µM (active); with M14, 0.492 µM (active); with UO-31, 0.667 µM (active); in the assay on SK-MEL-2 it was 32.4 µM (inactive); in the assay on MCF7, 0.27 µM (active). Further, the GI50 in the assay on SF-295 is 0.505 µM (active); in the assay on MDA-N it was 6.52 µM (inactive); in the assay with DU-145, 0.379 µM (active); with CAKI-1 it was 0.408 µM (active); in the assay with A498 it was 1.65 µM (inactive); with HT-29 it was 2.86 µM (inactive). Besides, the GI50 in the assay on A549 is 1.05 µM (active); in the assay on PC-3 it was 2.2 µM (inactive); with U-251, 0.232 µM (active); in the assay with OVCAR-4, 14.2 µM (inactive); in the assay on NCI-H226, 0.627 µM (active); in the assay with HCT-116, 1.02 µM (active). The GI50 with T47D was 0.239 µM (active); in the assay with NCI-H23, 0.371 µM (active).
Take `O=C(/C=C/c1ccc(OCc2ccccc2)c(OCc2ccccc2)c1)OCc1ccccc1`: the GI50 with EKVX, in the assay on ACHN, in the assay with M14, with UO-31, in the assay on SK-MEL-2 and with MCF7 was > 100 µM (inactive) in each case. In addition, the GI50 with SF-295, in the assay on MDA-N, with DU-145, in the assay with CAKI-1, with A498 and in the assay with HT-29 was > 100 µM (inactive) each time. Further, the GI50 in the assay with A549, with PC-3, in the assay with U-251, in the assay on OVCAR-4, in the assay with NCI-H226 and in the assay on HCT-116 was > 100 µM (inactive) each time. For the same molecule, the GI50 with T47D and in the assay on NCI-H23 was > 100 µM (inactive) in each case.
On to `CC(=O)NCCC1CNc2ccccc21` (stereo not given), for which the GI50 in the assay on EKVX, in the assay with ACHN, in the assay with M14, with UO-31, in the assay with SK-MEL-2 and in the assay with MCF7 was > 100 µM (inactive) in each case. Also, the GI50 in the assay on SF-295, in the assay with MDA-N, with DU-145, in the assay with CAKI-1, in the assay with A498 and with HT-29 was > 100 µM (inactive) throughout. In addition, the GI50 with A549, with PC-3, with U-251, in the assay with OVCAR-4, in the assay on NCI-H226 and with HCT-116 was > 100 µM (inactive) throughout. Besides, the GI50 with T47D and with NCI-H23 was > 100 µM (inactive) each time.
`O=C1C(=O)C(CCCO)(CCCO)CCCCCCCCC1(CCCO)CCCO`: the GI50 was > 100 µM (inactive) in the assay with EKVX; > 100 µM (inactive) in the assay with ACHN; 37.4 µM (inactive) with M14; 37.4 µM (inactive) with UO-31; 46.8 µM (inactive) with SK-MEL-2; 55.1 µM (inactive) in the assay with MCF7. The GI50 is > 100 µM (inactive) in the assay on SF-295; 86.9 µM (inactive) in the assay with MDA-N; 75.7 µM (inactive) in the assay with DU-145; > 100 µM (inactive) in the assay on CAKI-1; > 100 µM (inactive) in the assay on A498; 67 µM (inactive) with HT-29. Also, the GI50 in the assay with A549 is 45.8 µM (inactive); with PC-3, 55.3 µM (inactive); with U-251, 66.5 µM (inactive); in the assay with OVCAR-4, > 100 µM (inactive); in the assay on NCI-H226 it was > 100 µM (inactive); in the assay with HCT-116, 32 µM (inactive). The GI50 is 87.7 µM (inactive) in the assay on T47D and > 100 µM (inactive) with NCI-H23.
As to `CN(C)CCCCN1c2ccccc2Sc2ccc(C(=O)c3ccccc3)cc21`, the GI50 with EKVX was 6.65 µM (inactive); in the assay on ACHN it was 2.94 µM (inactive); in the assay on M14, 1.67 µM (inactive); with UO-31, 2.6 µM (inactive); in the assay on SK-MEL-2, 2.71 µM (inactive); in the assay with MCF7, 1.93 µM (inactive). For the same molecule, the GI50 with SF-295 is 2.15 µM (inactive); in the assay on MDA-N, 2.65 µM (inactive); with DU-145 it was 3.63 µM (inactive); with CAKI-1, 2.19 µM (inactive); in the assay on A498, 13.8 µM (inactive); in the assay with HT-29 it was 1.89 µM (inactive). For the same molecule, the GI50 in the assay on A549 was 3.47 µM (inactive); in the assay with PC-3 it was 2.32 µM (inactive); in the assay on U-251, 2.41 µM (inactive); in the assay on OVCAR-4 it was 3.23 µM (inactive); with NCI-H226 it was 5.96 µM (inactive); with HCT-116, 2.18 µM (inactive). Moreover, the GI50 in the assay with T47D was 3.59 µM (inactive); in the assay with NCI-H23 it was 6.59 µM (inactive).
Take `O=S(=O)(O)c1cc(O)c2c(O)c(/N=N/c3cccc4ccccc34)c(S(=O)(=O)O)cc2c1`: the GI50 with EKVX, in the assay with ACHN, in the assay on M14, in the assay with UO-31, in the assay with SK-MEL-2 and with MCF7 was > 100 µM (inactive) each time. The GI50 in the assay with SF-295, with MDA-N, in the assay with DU-145, in the assay with CAKI-1, with A498 and in the assay with HT-29 was > 100 µM (inactive) throughout. Besides, the GI50 in the assay with A549, with PC-3, in the assay with U-251, in the assay on OVCAR-4, in the assay with NCI-H226 and with HCT-116 was > 100 µM (inactive) each time. Besides, the GI50 in the assay on T47D and in the assay on NCI-H23 was > 100 µM (inactive) throughout.
For `CCC(=O)NCCc1c2c3c(ccnc3c3ncsc13)-c1ccccc1N2` [KUANONIAMINE C], the GI50 in the assay on EKVX was 5.22 µM (inactive); with ACHN, 0.583 µM (active); in the assay on M14 it was 2.73 µM (inactive); with UO-31 it was 0.53 µM (active); with SK-MEL-2 it was 43.2 µM (inactive); in the assay on MCF7, 0.0223 µM (active). Also, the GI50 was 1.12 µM (active) with SF-295; 0.324 µM (active) in the assay on MDA-N; 0.603 µM (active) in the assay with DU-145; 5.74 µM (inactive) in the assay with CAKI-1; 0.989 µM (active) in the assay on A498; 0.541 µM (active) in the assay on HT-29. In addition, the GI50 in the assay on A549 was 0.771 µM (active); in the assay with PC-3, 1.41 µM (inactive); in the assay on U-251, 1.41 µM (inactive); in the assay with OVCAR-4, 30.4 µM (inactive); in the assay with NCI-H226 it was 0.91 µM (active); with HCT-116, 0.582 µM (active). For the same molecule, the GI50 with T47D is 6.75 µM (inactive); in the assay on NCI-H23, 1.92 µM (inactive).
